Counter-ions that a name gives are not always drawn. Like-named read-outs stand apart in the source and are kept apart here.
Key:
[1] = biological target: Tyk2 (Homo sapiens (Human), UniProt P29597); experiment: pSTAT4 Cell Assay (MSD, NK92 cells); assay type: cell-based
[2] = biological target: JH2 domain of human Tyk2 (Homo sapiens (Human), UniProt P29597); experiment: JH2 Biochemical Assay (TR-FRET probe displacement); assay type: binding
[3] = TR-FRET probe displacement, JH2 domain of human Tyk2
[4] = JH2 domain of human Tyk2, TR-FRET probe displacement
[5] = TR-FRET probe displacement, JH2 domain

JH2 domain of human Tyk2, sequence (P29597 575-876): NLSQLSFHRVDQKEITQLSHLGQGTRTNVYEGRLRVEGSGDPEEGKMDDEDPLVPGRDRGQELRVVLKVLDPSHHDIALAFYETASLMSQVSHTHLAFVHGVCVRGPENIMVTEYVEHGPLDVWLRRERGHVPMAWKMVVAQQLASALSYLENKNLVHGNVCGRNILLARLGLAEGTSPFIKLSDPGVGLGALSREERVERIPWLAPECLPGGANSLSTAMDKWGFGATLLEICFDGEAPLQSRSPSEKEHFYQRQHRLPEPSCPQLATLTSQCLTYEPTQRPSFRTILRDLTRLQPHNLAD
Tyk2, sequence (P29597 whole entry, the tested form may be a part): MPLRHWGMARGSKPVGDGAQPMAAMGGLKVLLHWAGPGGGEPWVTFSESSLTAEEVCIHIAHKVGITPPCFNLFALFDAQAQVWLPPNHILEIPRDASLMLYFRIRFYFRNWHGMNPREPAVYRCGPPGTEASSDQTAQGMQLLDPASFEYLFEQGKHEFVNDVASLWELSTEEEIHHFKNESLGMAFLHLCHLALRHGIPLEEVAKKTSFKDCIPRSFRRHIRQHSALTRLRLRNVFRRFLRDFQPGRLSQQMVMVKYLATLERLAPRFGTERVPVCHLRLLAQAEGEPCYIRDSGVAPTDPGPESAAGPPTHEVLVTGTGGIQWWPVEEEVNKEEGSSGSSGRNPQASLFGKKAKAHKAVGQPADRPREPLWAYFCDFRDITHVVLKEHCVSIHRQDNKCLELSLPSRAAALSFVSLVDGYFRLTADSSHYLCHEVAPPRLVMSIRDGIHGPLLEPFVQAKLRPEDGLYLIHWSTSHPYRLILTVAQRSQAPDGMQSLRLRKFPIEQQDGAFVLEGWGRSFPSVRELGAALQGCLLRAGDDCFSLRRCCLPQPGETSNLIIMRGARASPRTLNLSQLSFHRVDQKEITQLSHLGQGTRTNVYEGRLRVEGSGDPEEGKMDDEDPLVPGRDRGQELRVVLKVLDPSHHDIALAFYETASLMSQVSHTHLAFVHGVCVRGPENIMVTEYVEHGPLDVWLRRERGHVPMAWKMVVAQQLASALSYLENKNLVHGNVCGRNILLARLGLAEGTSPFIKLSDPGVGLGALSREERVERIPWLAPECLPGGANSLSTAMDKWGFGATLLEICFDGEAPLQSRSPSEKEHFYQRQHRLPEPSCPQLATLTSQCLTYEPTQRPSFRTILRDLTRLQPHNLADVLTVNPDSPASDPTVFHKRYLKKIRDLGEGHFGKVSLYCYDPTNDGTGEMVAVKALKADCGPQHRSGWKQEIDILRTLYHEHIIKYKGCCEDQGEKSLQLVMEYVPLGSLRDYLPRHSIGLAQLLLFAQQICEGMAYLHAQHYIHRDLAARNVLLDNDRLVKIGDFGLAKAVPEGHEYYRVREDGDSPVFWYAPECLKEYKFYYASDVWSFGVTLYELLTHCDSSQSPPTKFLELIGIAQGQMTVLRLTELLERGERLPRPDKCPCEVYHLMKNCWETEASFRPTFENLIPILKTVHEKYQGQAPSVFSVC

| SMILES | IC50 ([1]; MSD) | IC50 [2, 3] | IC50 [2, 4] | IC50 [1] | IC50 [2, 5] |
| --- | --- | --- | --- | --- | --- |
| CC(=O)Nc1cc(Nc2cc(C)nc(C(C)(F)F)n2)c(OC[C@@H]2CCCO2)cn1 (single isomer, unassigned) [Example 293, (S)-N-(4-((2-(1,1-difluoroethyl)-6-methylpyrimidin-4-yl)amino)-5-((tetrahydrofuran-2-yl)methoxy)pyridin-2-yl)acetamide or (R)-N-(4-((2-(1,1-difluoroethyl)-6-methylpyrimidin-4-yl)amino)-5-((tetrahydrofuran-2-yl)methoxy)pyridin-2-yl)acetamide] | 10 to 100 nM | ≤ 10 nM |  |  |  |
| CC(=O)Nc1cc(Nc2cc(C)nc(C(C)(F)F)n2)c(-c2cc(CN(C)C)ccn2)cn1 [Example 740, N-(4′-((2-(1,1-difluoroethyl)-6-methylpyrimidin-4-yl)amino)-4-((dimethylamino)methyl)-[2,3′-bipyridin]-6′-yl)acetamide] | ≤ 10 nM |  | ≤ 10 nM |  |  |
| CC(=O)Nc1cc(Nc2cc(C)nc(C(C)(F)F)n2)c(OCc2ccn(C)n2)cn1 [Example 475, N-(4-((2-(1,1-difluoroethyl)-6-methylpyrimidin-4-yl)amino)-5-((1-methyl-1H-pyrazol-3-yl)methoxy)pyridin-2-yl)acetamide] | 10 to 100 nM |  | ≤ 10 nM |  |  |
| CCOc1cnc(NC(C)=O)cc1Nc1cc(-c2cnn(CCN3CCOCC3)c2)nc(C(C)(F)F)n1 [Example 313, N-(4-((2-(1,1-difluoroethyl)-6-(1-(2-morpholinoethyl)-1H-pyrazol-4-yl)pyrimidin-4-yl)amino)-5-ethoxypyridin-2-yl)acetamide] | 10 to 100 nM | ≤ 10 nM |  |  |  |
| CC(=O)Nc1cc(Nc2cc(C)nc(C(C)(F)F)n2)c(-c2cc(C(C)N(C)C)ccn2)cn1 (stereo not drawn) [Example 743, N-(4′-((2-(1,1-difluoroethyl)-6-methylpyrimidin-4-yl)amino)-4-(1-(dimethylamino)ethyl)-[2,3′-bipyridin]-6′-yl)acetamide] | 10 to 100 nM |  | ≤ 10 nM |  |  |
| CC(=O)Nc1cc(Nc2cc(C)nc(C(C)(F)F)n2)c(OCC2(C#N)CC2)cn1 [Example 84, N-(5-((1-cyanocyclopropyl)methoxy)-4-((2-(1,1-difluoroethyl)-6-methylpyrimidin-4-yl)amino)pyridin-2-yl)acetamide] | 10 to 100 nM | ≤ 10 nM |  |  |  |
| CC(=O)Nc1cc(Nc2cc(C)nc(C(C)(F)F)n2)c(-c2cccc(C3CN(C)CCO3)n2)cn1 (stereo not drawn) [Example 640, N-(4′-((2-(1,1-difluoroethyl)-6-methylpyrimidin-4-yl)amino)-6-(4-methylmorpholin-2-yl)-[2,3′-bipyridin]-6′-yl)acetamide] | ≤ 10 nM |  | ≤ 10 nM |  |  |
| CC(=O)Nc1cc(Nc2cc(C)nc(C(C)(F)F)n2)c(OCc2ccc(F)cn2)cn1 [Example 125, N-(4-((2-(1,1-difluoroethyl)-6-methylpyrimidin-4-yl)amino)-5-((5-fluoropyridin-2-yl)methoxy)pyridin-2-yl)acetamide] | 10 to 100 nM | ≤ 10 nM |  |  |  |
| CC(=O)Nc1cc(Nc2ccnc(C(C)(F)F)n2)c(-c2ncccn2)cn1 [Example 685, N-(4-((2-(1,1-difluoroethyl)pyrimidin-4-yl)amino)-5-(pyrimidin-2-yl)pyridin-2-yl)acetamide] | 10 to 100 nM |  | ≤ 10 nM |  |  |
| COc1nc(-c2cnc(NC(C)=O)cc2Nc2cc(C)nc(C(C)(F)F)n2)ncc1C [Example 663, N-(4-((2-(1,1-difluoroethyl)-6-methylpyrimidin-4-yl)amino)-5-(4-methoxy-5-methylpyrimidin-2-yl)pyridin-2-yl)acetamide] | ≥ 1000 nM |  | 10 to 100 nM |  |  |
| CC(=O)Nc1cc(Nc2cc(C)nc(C(C)(F)F)n2)c(-c2cc(F)n(C)n2)cn1 [Example 814, N-(4-((2-(1,1-difluoroethyl)-6-methylpyrimidin-4-yl)amino)-5-(5-fluoro-1-methyl-1H-pyrazol-3-yl)pyridin-2-yl)acetamide] |  |  |  | ≤ 10 nM | ≤ 10 nM |
| CC(=O)Nc1cc(Nc2cc(C)nc(C(C)(F)F)n2)c(-c2ccn3nccc3n2)cn1 [Example 540, N-(4-((2-(1,1-difluoroethyl)-6-methylpyrimidin-4-yl)amino)-5-(pyrazolo[1,5-a]pyrimidin-5-yl)pyridin-2-yl)acetamide] | ≤ 10 nM |  | ≤ 10 nM |  |  |
| CC(=O)Nc1cc(Nc2cc(C)nc(C(C)(F)F)n2)c(OCc2cocn2)cn1 [Example 505, N-(4-((2-(1,1-difluoroethyl)-6-methylpyrimidin-4-yl)amino)-5-(oxazol-4-ylmethoxy)pyridin-2-yl)acetamide] | 10 to 100 nM |  | ≤ 10 nM |  |  |
| COc1cnc(NC(C)=O)cc1Nc1cc(-c2cccnc2)nc(C(C)(F)F)n1 [Example 388, N-(4-((2-(1,1-difluoroethyl)-6-(pyridin-3-yl)pyrimidin-4-yl)amino)-5-methoxypyridin-2-yl)acetamide] | 10 to 100 nM |  | ≤ 10 nM |  |  |
| COCCOc1cnc(NC(C)=O)cc1Nc1cc(-c2cnn(C(C)C)c2)nc(C(C)(F)F)n1 [Example 366, N-(4-((2-(1,1-difluoroethyl)-6-(1-isopropyl-1H-pyrazol-4-yl)pyrimidin-4-yl)amino)-5-(2-methoxyethoxy)pyridin-2-yl)acetamide] | ≤ 10 nM | ≤ 10 nM |  |  |  |
| COc1cc(Nc2cc(NC(C)=O)ncc2-c2ncc(F)cn2)nc(C(C)(F)F)c1 [Example 191, N-(4-((6-(1,1-difluoroethyl)-4-methoxypyridin-2-yl)amino)-5-(5-fluoropyrimidin-2-yl)pyridin-2-yl)acetamide] | 10 to 100 nM | ≤ 10 nM |  |  |  |
| CC(=O)Nc1cc(Nc2cc(C)nc(C(C)(F)F)n2)c(-c2cc(C#N)cnn2)cn1 [Example 286, N-(5-(5-cyanopyridazin-3-yl)-4-((2-(1,1-difluoroethyl)-6-methylpyrimidin-4-yl)amino)pyridin-2-yl)acetamide] | 100 to 1000 nM | ≤ 10 nM |  |  |  |
| COc1cc(Nc2cc(NC(C)=O)ncc2OC)nc(C(C)(F)F)n1 [Example 18, N-(4-((2-(1,1-difluoroethyl)-6-methoxypyrimidin-4-yl)amino)-5-methoxypyridin-2-yl)acetamide] | 10 to 100 nM | ≤ 10 nM |  |  |  |
| CC(=O)Nc1cc(Nc2cccc(C(C)(F)F)n2)c(-c2ccnc(C)n2)cn1 [Example 172, N-(4-((6-(1,1-difluoroethyl)pyridin-2-yl)amino)-5-(2-methylpyrimidin-4-yl)pyridin-2-yl)acetamide] | ≤ 10 nM | ≤ 10 nM |  |  |  |
| CC(=O)Nc1cc(Nc2cc(C)nc(C(C)(F)F)n2)c(OCC2COCC(C)(C)O2)cn1 (stereo not drawn) [Example 419, N-(4-((2-(1,1-difluoroethyl)-6-methylpyrimidin-4-yl)amino)-5-((6,6-dimethyl-1,4-dioxan-2-yl)methoxy)pyridin-2-yl)acetamide] | ≤ 10 nM |  | ≤ 10 nM |  |  |
| CC(=O)Nc1cc(Nc2ccnc(C(C)(F)F)n2)c(-c2ccc(COC(F)F)cn2)cn1 [Example 265, N-(4′-((2-(1,1-difluoroethyl)pyrimidin-4-yl)amino)-5-((difluoromethoxy)methyl)-[2,3′-bipyridin]-6′-yl)acetamide] | ≤ 10 nM | ≤ 10 nM |  |  |  |
| COC(=O)Nc1cc(Nc2cc(OC3CC3)nc(C(C)(F)F)n2)c(OCCN(C)C)cn1 [Example 447, methyl (4-((6-cyclopropoxy-2-(1,1-difluoroethyl)pyrimidin-4-yl)amino)-5-(2-(dimethylamino)ethoxy)pyridin-2-yl)carbamate] | 10 to 100 nM |  | ≤ 10 nM |  |  |
| CC(=O)Nc1cc(Nc2ccnc(C(C)(F)F)n2)c(-c2ccc(C(C)(C)O)cn2)cn1 [Example 852, N-(4′-((2-(1,1-difluoroethyl)pyrimidin-4-yl)amino)-5-(2-hydroxypropan-2-yl)-[2,3′-bipyridin]-6′-yl)acetamide] |  |  |  | ≤ 10 nM | ≤ 10 nM |
| COc1cnc(NC(C)=O)cc1Nc1cc(C)nc(C23COC(C2)C3)n1 [Example 448, N-(4-((2-(2-oxabicyclo[2.1.1]hexan-4-yl)-6-methylpyrimidin-4-yl)amino)-5-methoxypyridin-2-yl)acetamide] | 100 to 1000 nM |  | 10 to 100 nM |  |  |
| CC(=O)Nc1cc(Nc2cc(C)nc(C(C)(F)F)n2)c(-c2cccc(C(C)(C)C#N)n2)cn1 [Example 654, N-(6-(2-cyanopropan-2-yl)-4′-((2-(1,1-difluoroethyl)-6-methylpyrimidin-4-yl)amino)-[2,3′-bipyridin]-6′-yl)acetamide] | ≤ 10 nM |  | ≤ 10 nM |  |  |
| CC(=O)Nc1cc(Nc2cc(C)nc(C(C)(F)F)n2)c(-c2ccnc(C(C)(F)F)n2)cn1 [Example 837, N-(4-((2-(1,1-difluoroethyl)-6-methylpyrimidin-4-yl)amino)-5-(2-(1,1-difluoroethyl)pyrimidin-4-yl)pyridin-2-yl)acetamide] |  |  |  | ≤ 10 nM | ≤ 10 nM |
| CC(=O)Nc1cc(Nc2ccnc(C(C)(F)F)n2)c(-c2ccc3c(n2)CCC3=O)cn1 [Example 718, N-(4-((2-(1,1-difluoroethyl)pyrimidin-4-yl)amino)-5-(5-oxO6,7-dihydrO5H-cyclopenta[b]pyridin-2-yl)pyridin-2-yl)acetamide] | 10 to 100 nM |  | ≤ 10 nM |  |  |
| CCc1cc(Nc2cc(NC(C)=O)ncc2-c2ccc(C(C)(C)O)cn2)nc(C(C)(F)F)n1 [Example 839, N-(4′-((2-(1,1-difluoroethyl)-6-ethylpyrimidin-4-yl)amino)-5-(2-hydroxypropan-2-yl)-[2,3′-bipyridin]-6′-yl)acetamide] |  |  |  | ≤ 10 nM | ≤ 10 nM |
| CC(=O)Nc1cc(Nc2cc(C(C)C)nc(C(C)(F)F)n2)c(O[C@H]2C[C@H](F)C2)cn1 [Example 410, N-(4-((2-(1,1-difluoroethyl)-6-isopropylpyrimidin-4-yl)amino)-5-((1r,3r)-3-fluorocyclobutoxy)pyridin-2-yl)acetamide] | ≤ 10 nM |  | ≤ 10 nM |  |  |
| CCOc1cnc(NC(C)=O)cc1Nc1cc(OC2CC(F)C2)nc(C(C)(F)F)n1 (stereo not drawn) [Example 457, N-(4-((2-(1,1-difluoroethyl)-6-(3-fluorocyclobutoxy)pyrimidin-4-yl)amino)-5-ethoxypyridin-2-yl)acetamide trifluoroacetate] | 10 to 100 nM |  | ≤ 10 nM |  |  |
